Measurements reported in patent publication US20190062305A1, “PYRIDYL OR PYRAZINYL COMPOUNDS CARRYING A METHYL-BOUND ALPHA-AMINO ACID AMIDE GROUP” (ABBVIE DEUTSCHLAND GMBH & CO. KG, priority 2015, published 2019).
Structures can show the parent of a compound that is named as a salt.

Tests used:
[1] = target: T1, 5-HT2C receptor (Homo sapiens, UniProt P28335); experiment: Human 5-HT2C functional assay (beta-arrestin2 recruitment, U2OS_HTR2C_β-Arrestin cells); assay type: cell-based; settings: for EC50: beta-arrestin2 recruitment, U2OS_HTR2C_β-Arrestin cells, 1.5 h incubation, read-out: EC50 5-HT2C (potency in functional assay)
T1 construct: host or cells: U2OS
Protocol: The functional activity of compounds of formula I was assayed by incubation with U2OS_HTR2C_β-Arrestin cells (DiscoverX, 93-0289C3) to induce beta-arrestin2 recruitment to the 5-HT2C receptor. The agonist-induced recruitment and proximity of the receptor and beta-arrestin2 leads to complementation and formation of active β-galactosidase. The enzyme complementation results in enzyme activity, which is measured following the termination of the agonist incubation using DiscoveRx's detection reagent, which contains a chemiluminescent substrate which produces a high intensity signal. Cells were plated and a medium-change to a 1% serum containing medium was performed 24h later. The next day, test compounds were added and incubated for 1.5 h before addition of detection reagent.
The response produced was measured and compared with the response produced by 10 [mu]M 5-HT or the maximal effect induced by 5-HT (defined as 100%) to which it was expressed as a percentage response (relative efficacy). Dose response curves were constructed using Graphpad Prism (Graph Software Inc.) or using in house adapted software using a 4 parameter dose response model with variable slope (fit=(Bottom+(Top-Bottom)/(1+10^∧((Log EC50−x)*HillSlope))res=(y-fit)). Results are compiled in the table below.

[2] = Metabolic stability in human liver microsomes, unbound intrinsic clearance (Cl int/fu mic); assay type: in vitro ADME; settings: 0.5 μM compound, NADPH; for CLint scaled at 0.5 μM: human, liver microsomes, pH 7.4, human liver microsomes 0.25 mg/mL, read-out: Cl int, mic unb. (h) [l/h/kg] (unbound intrinsic clearance, human); for Cl int, mic unb. (h) [l/h/kg] (unbound intrinsic clearance, human): human liver microsomes 0.25 mg/mL
Protocol: Samples of the tested compounds (0.5 μM) were preincubated together with human liver microsomes (0.25 mg of microsomal protein/mL) in 0.05 M potassium phosphate buffer of pH 7.4 in microtiter plates at 37° C. for 5 minutes. The reaction was started by adding NADPH (1.0 mM). After 0, 5, 10, 15, 20 and 30 minutes, an aliquot was removed, the reaction was cooled and stopped by adding twice the amount of quench solution consisting of acetonitrile/methanol 1:1, and containing 0.2 μM carbutamide as internal standard. The samples were frozen until analyzed. The remaining concentration of undegraded test substance was determined by liquid chromatography-tandem mass spectrometry (LC-MS/MS). The half-life (t1/2) was determined from the gradient of the ratio of the signal of (test substance/internal standard)/unit time plot, allowing the calculation of the half-life of the test substance, assuming first order kinetics, from the decrease in the concentration of the compound with time. The microsomal clearance ([…]) was calculated as follows: […]=((ln(2)/t 1⁄2)/Microsomal Protein Concentration (mg/ml))*1000, leading to the unit of uL/min/mg. The scaled clearance (mClin_scaled) was calculated as […]_scaled=m CLint*(Microsomal Yield (mg/kg BW))/1000000*60, leading to the units L/h/kg. The Microsomal Yield is defined by the specifics of the used microsomes. Calculations were modified from references: Di, The Society for Biomolecular Screening, 2003, 453-462; Obach, D M D, 1999 vol 27. N 11, 1350-1359. A suspension of 0.25 mg/ml microsomal protein spiked with 0.5 μM of test compound was pipetted on one side of a HTDialysis device (HTDialysis LLC, 37 Ledgewood Drive, Gales Fery CT 06335) separated by a membrane with a MWcut off 12-14 K. 50 mM K-Phosphate buffer (pH 7.4) was added on the other side of the well. After incubation at 37° C. for 4 h while shaking at 150 rpm, aliquots of both sides were taken, quenched with MeOH/ACN 1:1 and 0.2 μM of internal standard and frozen until analysis by LCMSMS Cl int unbound=Cl int/fu mic

[3] = relative efficacy vs response to 10 μM 5-HT or maximal 5-HT effect (100%)

T1 sequence (P28335 33-458): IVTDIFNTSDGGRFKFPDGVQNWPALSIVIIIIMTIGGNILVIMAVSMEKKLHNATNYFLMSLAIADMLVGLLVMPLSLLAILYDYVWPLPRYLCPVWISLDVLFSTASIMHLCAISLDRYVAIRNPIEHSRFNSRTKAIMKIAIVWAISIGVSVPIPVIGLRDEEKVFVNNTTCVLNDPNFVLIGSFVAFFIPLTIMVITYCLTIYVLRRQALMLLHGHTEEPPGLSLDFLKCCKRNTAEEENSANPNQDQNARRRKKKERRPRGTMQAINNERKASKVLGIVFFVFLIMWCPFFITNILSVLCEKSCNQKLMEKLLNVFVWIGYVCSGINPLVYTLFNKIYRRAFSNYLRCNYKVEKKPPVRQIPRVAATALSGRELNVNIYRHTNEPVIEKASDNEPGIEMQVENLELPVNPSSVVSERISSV
T1 sequence (P32121 whole entry partner): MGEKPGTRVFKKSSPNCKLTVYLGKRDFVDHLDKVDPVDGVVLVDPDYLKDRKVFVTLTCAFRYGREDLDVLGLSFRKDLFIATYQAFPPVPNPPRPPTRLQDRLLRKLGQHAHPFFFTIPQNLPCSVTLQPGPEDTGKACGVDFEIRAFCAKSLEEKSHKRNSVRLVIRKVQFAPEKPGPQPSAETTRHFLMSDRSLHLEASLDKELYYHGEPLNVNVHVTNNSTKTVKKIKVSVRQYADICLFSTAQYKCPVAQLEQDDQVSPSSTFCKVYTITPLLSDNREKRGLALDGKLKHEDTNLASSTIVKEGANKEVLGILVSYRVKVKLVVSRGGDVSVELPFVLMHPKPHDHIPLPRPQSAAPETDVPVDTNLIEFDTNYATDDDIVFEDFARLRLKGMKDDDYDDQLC

SMILES	EC50 [1] [nM]	Emax [1, 3] [%]	CLint scaled at 0.5 μM [2] [L/h/kg]	Cl int, mic unb. (h) [l/h/kg] (unbound intrinsic clearance, human) [2]	% efficacy [1, 3]
COc1nc(NCCCc2ccccc2)c(F)cc1CNC(=O)[C@@H]1CCCN1 [Example 185, (2S)—N-[[5-Fluoro-2-methoxy-6-(3-phenylpropylamino)-3-pyridyl]methyl]-pyrrolidine-2-carboxamide; 2,2,2-trifluoroacetic acid]	20 to 200	> 70	5 to 50		
COc1nc(N2CCCCCC2)c(F)cc1CNC(=O)[C@@H]1CCCN1 [Example 155, (2S)—N-[[6-(Azepan-1-yl)-5-fluoro-2-methoxy-3-pyridyl]methyl]pyrrolidine-2-carboxamide; 2,2,2-trifluoroacetic Acid]	20 to 200	> 70	5 to 50		
CCCN(Cc1ccccc1)c1nc(OC)c(CNC(=O)[C@@H]2CCCN2)cc1F [Example 171, (2S)—N-[[6-[Benzyl(propyl)amino]-5-fluoro-2-methoxy-3-pyridyl]methyl]-pyrrolidine-2-carboxamide Hydrochloride]	200 to 1000	> 70	5 to 50		
COc1nc(OCC2CCC(F)(F)C2)c(F)cc1CNC(=O)[C@@H]1CCCN1C (stereo partly drawn) [Example 7, (2S)—N-[[6-[(3,3-Difluorocyclopentyl)methoxy]-5-fluoro-2-methoxy-3-pyridyl]-methyl]-1-methyl-pyrrolidine-2-carboxamide; Fumaric Acid]	< 20	> 70	< 5		
COc1nc(C2CCOCC2)c(F)cc1CNC(=O)[C@@H]1CCCN1 [Example 159, (2S)—N-[(5-Fluoro-2-methoxy-6-tetrahydropyran-4-yl-3-pyridyl)methyl]-pyrrolidine-2-carboxamide Hydrochloride]	200 to 1000	> 70	< 5		
COc1nc(OCC2CC2(F)F)c(F)cc1CN(C)C(=O)[C@@H]1CCCN1 (stereo partly drawn) [Example 77, (2S)—N-[[6-[(2,2-Difluorocyclopropyl)methoxy]-5-fluoro-2-methoxy-3-pyridyl]-methyl]-N-methyl-pyrrolidine-2-carboxamide Hydrochloride]	< 20	> 70	< 5		
COc1nc(NC2CCC(C(F)(F)F)CC2)c(F)cc1CN(C)C(=O)[C@@H]1CCCN1 (mixture of isomers) [Example 157, (2S)—N-[[5-fluoro-2-methoxy-6-[[4-(trifluoromethyl)cyclohexyl]amino]-3-pyridyl]methyl]-N-methyl-pyrrolidine-2-carboxamide; 2,2,2-trifluoroacetic Acid]	200 to 1000	50 to 70	5 to 50		
COc1nc(N[C@H]2CC[C@@H](C(F)(F)F)CC2)c(F)cc1CNC(=O)[C@@H]1CCCN1 [Example 141, (2S)—N-[[5-Fluoro-2-methoxy-6-[[cis-4-(trifluoromethyl)cyclohexyl]amino]-3-pyridyl]methyl]pyrrolidine-2-carboxamide]	< 20	> 70		+ (from 50 to 500 l/h/kg)	
COc1nc(N2CC(C)OC(C)C2)c(F)cc1CNC(=O)[C@@H]1CCCN1 (stereo partly drawn) [Example 174, (2S)—N-[[6-(2,6-Dimethylmorpholin-4-yl)-5-fluoro-2-methoxy-3-pyridyl]methyl]-pyrrolidine-2-carboxamide; 2,2,2-trifluoroacetic Acid]	200 to 1000	30 to 50	< 5		
COc1nc(OC[C@H]2CCC(F)(F)C2)c(F)cc1CNC(=O)[C@@H]1CCCN1 [Example 32, (2S)—N-[[6-[[(1S)-3,3-Difluorocyclopentyl]methoxy]-5-fluoro-2-methoxy-3-pyridyl]methyl]pyrrolidine-2-carboxamide; Fumaric Acid]	< 20	50 to 70	< 5		
COc1nc(-c2ccccc2)c(F)cc1CNC(=O)[C@@H]1CCCN1 [Example 125, (2S)—N-[(5-Fluoro-2-methoxy-6-phenyl-3-pyridyl)methyl]pyrrolidine-2-carboxamide; 2,2,2-trifluoroacetic Acid]	200 to 1000	> 70	5 to 50		
COc1nc(O[C@@H]2CCCC[C@H]2F)c(F)cc1CNC(=O)[C@@H]1CCCN1 [Example 55, (2S)—N-[[5-Fluoro-6-[(1R,2R)-2-fluorocyclohexoxy]-2-methoxy-3-pyridyl]methyl]pyrrolidine-2-carboxamide; 2,2,2-trifluoroacetic Acid]	< 20	> 70	< 5		
C=CCN(Cc1ccccc1)c1nc(OC)c(CNC(=O)[C@@H]2CCCN2)cc1F [Example 150, (2S)—N-[[6-[N-Allyl-N-benzyl-amino]-5-fluoro-2-methoxy-3-pyridyl]methyl]-pyrrolidine-2-carboxamide Hydrochloride]	20 to 200	> 70	5 to 50		
COc1nc(O[C@H]2CCC[C@@H](C(F)(F)F)C2)c(F)cc1CNC(=O)[C@@H]1CCCN1 (relative stereo) [Example 88, (2S)—N-[[5-Fluoro-2-methoxy-6-[(1S,3R)-3-(trifluoromethyl)cyclohexoxy]-3-pyridyl]methyl]pyrrolidine-2-carboxamide Hydrochloride]	< 20	> 70	5 to 50		
COc1nc(O[C@H]2CC[C@@H](C(F)(F)F)CC2)c(F)cc1CNC(=O)[C@@H]1CCCN1 [Example 20, (2S)—N-[[5-Fluoro-2-methoxy-6-[cis-4-(trifluoromethyl)cyclohexoxy]-3-pyridyl]methyl]pyrrolidine-2-carboxamide; Fumaric Acid]	< 20	> 70	5 to 50		
COc1nc(N[C@H]2CC[C@@H](C(F)(F)F)CC2)c(F)cc1CNC(=O)[C@@H]1CCCN1.Cl [Example 142, (2S)—N-[[5-Fluoro-2-methoxy-6-[[cis-4-(trifluoromethyl)cyclohexyl]amino]-3-pyridyl]methyl]pyrrolidine-2-carboxamide Hydrochloride]	< 20			++ (from 5 to <50 l/h/kg)	+++ (>70%)
COc1nc(OC2CCC(C(F)(F)F)CC2)c(F)cc1CNC(=O)[C@@H]1CCN1 (stereo partly drawn) [Example 36, (2S)—N-[[5-Fluoro-2-methoxy-6-[4-(trifluoromethyl)cyclohexoxy]-3-pyridyl]-methyl]azetidine-2-carboxamide; Succinic Acid]	< 20	50 to 70	5 to 50		
COc1nc(OC2CCC(F)(F)CC2)c(F)cc1CNC(=O)[C@H]1CCCN1C [Example 52, (2R)—N-[[6-(4,4-Difluorocyclohexoxy)-5-fluoro-2-methoxy-3-pyridyl]methyl]-1-methyl-pyrrolidine-2-carboxamide Hydrochloride]	20 to 200	> 70	< 5		
COc1nc(OCC2CCC(F)(F)CC2)c(F)cc1CNC(=O)[C@@H]1CCCN1C [Example 9, (2S)—N-[[6-[(4,4-Difluorocyclohexyl)methoxy]-5-fluoro-2-methoxy-3-pyridyl]methyl]-1-methyl-pyrrolidine-2-carboxamide; Fumaric Acid]	< 20	> 70	5 to 50		
COc1nc(OC2CCC(O)CC2)c(F)cc1CNC(=O)[C@@H]1CCCN1 (stereo partly drawn) [Example 81, (2S)—N-[[5-Fluoro-6-(4-hydroxycyclohexoxy)-2-methoxy-3-pyridyl]methyl]-pyrrolidine-2-carboxamide; 2,2,2-trifluoroacetic Acid]	200 to 1000	> 70	< 5		
